The source of these data is US11230526B1, “Cylcoalkenyl derivatives useful as agonists of the GPR120 and/or GPR40 receptors” (Janssen Pharmaceutica NV, priority 2018, dated 2022).

One assay deals with T1, human GPR40 (Homo sapiens, UniProt O14842).
T1 construct: expressed in transfected cells
The experiment in a line: GPR40 calcium flux assay, human GPR40. Format: cell-based. The following applies: HEK293 cells stably expressing GPR40; table does not say human or rat. As to the method:
Compounds were tested in a calcium flux assay using transfected HEK293 cells stably expressing either human GPR40 or rat GPR40. Human GPR40 expressing cells were cultured in DMEM−High Glucose media supplemented with 10% fetal bovine serum, 1×L-Glutamine, 1×Penicillin/Streptomycin and 500 μg/mL G418. Rat GPR40 expressing cells were cultured in DMEM−High Glucose media supplemented with 10% fetal bovine serum and 1 μg/mL puromycin. Cells were plated into poly-D-lysine coated 384-well plates and cultured overnight in a 37° C. humidified tissue culture incubator under 5% CO2/[…] atmosphere.
On the day of the experiment, the culture media was replaced with assay buffer (HBSS, 20 mM HEPES, 0.1% BSA) and the cells incubated at 37° C. for 1 h. Calcium-sensitive fluorescent dye (Fluo 8 No-Wash Calcium Dye, ABD Bioquest) was then added and the cells incubated for another 30 min at 37° C. followed by 15 min at room temperature while protected from the light. The cell plate and a plate of diluted compounds of Formula (I) were loaded into a fluorescent plate reader that added compounds onto the cells while measuring the fluorescence intensity of each well. The plate reader recorded fluorescence intensity at 1 second intervals for 8 min and provided the data for analysis in an Excel format. EC50 values were calculated using Prism (GraphPad) software.

The target in the next assay is T2, Human GPR120 short form (Homo sapiens, UniProt Q5NUL3).
T2 construct: expressed in transfected cells
T2 sequence (Q5NUL3 1-361): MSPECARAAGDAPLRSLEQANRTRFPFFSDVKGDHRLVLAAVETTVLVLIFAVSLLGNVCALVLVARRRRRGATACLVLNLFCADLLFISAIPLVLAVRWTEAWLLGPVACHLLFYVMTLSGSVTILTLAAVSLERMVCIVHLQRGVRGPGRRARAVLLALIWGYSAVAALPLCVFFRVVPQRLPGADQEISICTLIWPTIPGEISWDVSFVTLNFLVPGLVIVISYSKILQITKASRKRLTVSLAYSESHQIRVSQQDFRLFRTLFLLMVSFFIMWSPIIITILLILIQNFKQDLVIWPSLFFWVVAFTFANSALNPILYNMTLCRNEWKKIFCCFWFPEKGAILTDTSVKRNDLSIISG
The assay can be described thus: Human GPR120 calcium flux assay, Procedure Calcium B (4200 cells/well). Format: cell-based. As to the method: Human GPR120 in Calcium Flux Assay
These cells are first loaded with the Ca^+2 sensitive dye, Fluo-4 NW. Upon stimulation, intracellular released Ca^+2 can bind to the dye and alter its fluorescence intensity. This increase in fluorescence signal, and thus the flux in intracellular [Ca^2+], is detected and quantitated by fluorescence imaging using a FLIPR reader. The effect of the agonist is measured as a function of concentration and used to calculate an EC50 based upon a response curve.
In this procedure 4200 cells/well were employed.
A Human GPR120 clone (Genbank accession number NM_001195755.1) was placed into the pcDNA3.1 mammalian expression vector carrying the neomycin resistance gene. A stable mammalian cell was generated by placing the above clone into a HEK293 background. […] Cells were split 2 times a week to keep the cells in the log-phase growth. […]
The assay was performed on a FLIPR plate reader using the following parameters. Baseline was read for 10 seconds at 1 sec intervals. The program was set to transfer 10 μL of ligand from compound plate to cell plate after baseline reading. Aspiration was executed at: 10 μL/sec speed, 4.6 μL height, Dispensing was executed at: 30 μL/sec speed, 45 μL height. After compound addition, each well was read for 300 sec, with measurements collected at 1 sec intervals.
The kinetic data from the FLIPR was based upon a 5 minute window for data collection. The fluorescence of each sample well was used for individual calculations of a normalized RFU value, which was defined as maximum response minus the minimum response. The normalized fluorescence reading (RFU) was calculated as follows: RFU=Fmax−Fmin
The Fitting Equation was: Y=Bottom+(Top-Bottom)/(1+10^((Log EC50−X)*HillSlope)), where X is the log of the concentration and Y is the response.

pEC50: −log10 of the molar value. A value given as a limit tells only on which side of the number the result lay.

T1 sequence (O14842 whole entry): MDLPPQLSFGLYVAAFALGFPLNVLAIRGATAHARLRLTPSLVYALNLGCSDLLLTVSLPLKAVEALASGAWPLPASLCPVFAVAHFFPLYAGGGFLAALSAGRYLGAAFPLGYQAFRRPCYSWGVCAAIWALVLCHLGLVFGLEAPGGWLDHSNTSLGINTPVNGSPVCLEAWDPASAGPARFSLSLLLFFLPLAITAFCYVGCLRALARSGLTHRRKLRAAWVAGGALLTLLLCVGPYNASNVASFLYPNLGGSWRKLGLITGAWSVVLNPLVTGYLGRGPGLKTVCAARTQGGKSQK

Turning to `O=C(O)CCc1ccc(OCC2=C(c3ccccc3)CCC2)cc1Cl` [Compound 259, 3-[2-chloro-4-[(2-phenylcyclopenten-1-yl)methoxy]phenyl]Propanoic Acid], the pEC50 at human GPR40 was 5.80; on Human GPR120 short form, 5.91.
`Cc1ccc(C2=C(COc3ccc(CCC(=O)O)c(Cl)c3)CC(F)(F)C2)cc1` [Compound 250, 3-[2-chloro-4-[[4,4-difluoro-2-(p-tolyl)cyclopenten-1-yl]methoxy]phenyl]Propanoic Acid]: the pEC50 on human GPR40 is 5.83; on Human GPR120 short form it was 7.12.
In the same order, the values of `O=C(O)CCc1ccc(OCC2=C(c3ccc(C(F)(F)F)cc3)CCC2)cc1Cl` [Compound 272, 3-[2-chloro-4-[[2-[4-(trifluoromethyl)phenyl]cyclopenten-1-yl]methoxy]phenyl]Propanoic Acid] are 6.58 and 5.65.
In the same order, the values of `COc1ccc(C2=C(COc3ccc(CCC(=O)O)c(C)c3C)CCC2)cn1` [Compound 220, 3-[4-[[2-(6-methoxy-3-pyridyl)cyclopenten-1-yl]methoxy]-2,3-dimethyl-phenyl]Propanoic Acid] are less than 5.30 and 6.80.
`CCc1ccc(C2=C(COc3cc(C)c(CCC(=O)O)cc3F)CCC2)cc1` [Compound 290, 3-[4-[[2-(4-ethylphenyl)cyclopenten-1-yl]methoxy]-5-fluoro-2-methyl-phenyl]Propanoic Acid]: the pEC50 is less than 5.30 at human GPR40 and 6.38 at Human GPR120 short form.
On to `COC1CCC(c2ccccc2C)=C(COc2ccc(CCC(=O)O)cc2)C1` (centres unmarked) [Compound 575, 3-[4-[[5-methoxy-2-(o-tolyl)cyclohexen-1-yl]methoxy]phenyl]Propanoic Acid], for which the pEC50 at human GPR40 and on Human GPR120 short form was less than 5.30 in each case.
Consider `CC1CCC(c2ccc(Cl)cc2)=C1COc1ccc(CCC(=O)O)c(C(F)(F)F)c1` (centres unmarked) [Compound 336, 3-[4-[[2-(4-chlorophenyl)-5-methyl-cyclopenten-1-yl]methoxy]-2-(trifluoromethyl)phenyl]Propanoic Acid], for which the pEC50 at human GPR40 is 6.37; on Human GPR120 short form, 6.25.
For `CC1CCC(COc2ccc(CCC(=O)O)c(C(F)(F)F)c2)=C1c1ccccc1` (centres unmarked) [Compound 306, 3-[4-[(3-methyl-2-phenyl-cyclopenten-1-yl)methoxy]-2-(trifluoromethyl)phenyl]Propanoic Acid], the values for the pEC50 on human GPR40 and on Human GPR120 short form were 6.46 and 5.95, respectively.
For `Cc1ccc(C2=C(COc3ccc(CCC(=O)O)c(Cl)c3)CCC2)c(C)c1` [Compound 246, 3-[2-chloro-4-[[2-(2,4-dimethylphenyl)cyclopenten-1-yl]methoxy]phenyl]Propanoic Acid] the same measures were 6.45 and 5.50.
In the same order, the values of `O=C(O)CCc1ccc(OCC2=C(C3CCCC3)CCCCC2)cc1C(F)(F)F` [Compound 612, 3-[4-[(2-cyclopentylcyclohepten-1-yl)methoxy]-2-(trifluoromethyl)phenyl]Propanoic Acid] are 6.97 and 6.63.
For `O=C(O)CCc1cc(Cl)c(OCC2=C(c3ccc(F)cc3)CCC2)c(Cl)c1` [Compound 235, 3-[3,5-dichloro-4-[[2-(4-fluorophenyl)cyclopenten-1-yl]methoxy]phenyl]Propanoic Acid] the same measures were less than 5.30 and 6.18.
In the case of `Cc1ccc(C2=C(COc3ccc(CCC(=O)O)cc3C)CCC2)o1` [Compound 211, 3-[3-methyl-4-[[2-(5-methyl-2-furyl)cyclopenten-1-yl]methoxy]phenyl]Propanoic Acid], the pEC50 is less than 5.30 on human GPR40 and 6.52 at Human GPR120 short form.
Take `O=C(O)CCc1ccc(OCC2=C(c3ccc(Cl)c(F)c3)CCC2)cc1Cl` [Compound 274, 3-[2-chloro-4-[[2-(4-chloro-3-fluoro-phenyl)cyclopenten-1-yl]methoxy]phenyl]Propanoic Acid]: the pEC50 at human GPR40 was 6.67; on Human GPR120 short form it was 6.29.
In the same order, the values of `CCCC1=C(COc2ccc(CCC(=O)O)c(C(F)(F)F)c2)CCCC1` [Compound 590, 3-[4-[(2-propylcyclohexen-1-yl)methoxy]-2-(trifluoromethyl)phenyl]Propanoic Acid] are 6.50 and 5.87.
For `Cc1cc(OCC2=C(c3ccc(F)cc3)CCC2)c(F)cc1CCC(=O)O` [Compound 304, 3-[5-fluoro-4-[[2-(4-fluorophenyl)cyclopenten-1-yl]methoxy]-2-methyl-phenyl]Propanoic Acid] the same measures were 5.96 and 6.30.
For `Cc1ccc(CC2=C(COc3cc(C)c(CCC(=O)O)cc3F)CCC2)cc1` [Compound 347, 3-[5-fluoro-2-methyl-4-[[2-(p-tolylmethyl)cyclopenten-1-yl]methoxy]phenyl]Propanoic Acid] the same measures were 6.05 and 5.75.
`CC1CCC(COc2ccc(CCC(=O)O)cc2)=C1c1ccc(Cl)cc1` (centres unmarked) [Compound 328, 3-[4-[[2-(4-chlorophenyl)-3-methyl-cyclopenten-1-yl]methoxy]phenyl]Propanoic Acid]: the pEC50 at human GPR40 is 6.19; at Human GPR120 short form it was 6.51.
In the same order, the values of `O=C(O)CCc1ccc(OCC2=C(c3ccc(C(F)(F)F)cc3)CCC2)cc1C(F)(F)F` [Compound 300, 3-[2-(trifluoromethyl)-4-[[2-[4-(trifluoromethyl)phenyl]cyclopenten-1-yl]methoxy]phenyl]Propanoic Acid] are 6.71 and 5.81.
As to `O=C(O)CCc1cc(F)c(OCC2=C(c3ccco3)CCC2)c(F)c1` [Compound 209, 3-[3,5-difluoro-4-[[2-(2-furyl)cyclopenten-1-yl]methoxy]phenyl]Propanoic Acid], the figures for the pEC50 at human GPR40 and on Human GPR120 short form were less than 5.30 and 5.33, respectively.
For `Cc1cc(OCC2=C(C3CCC(F)(F)CC3)CCC2)c(F)cc1CCC(=O)O` [Compound 417, 3-[4-[[2-(4,4-difluorocyclohexyl)cyclopenten-1-yl]methoxy]-5-fluoro-2-methyl-phenyl]Propanoic Acid] the same measures were 6.00 and less than 5.30.
In the case of `Cc1c(CCC(=O)O)ccc(OCC2=C(c3ccc(Cl)cc3)CC(C(C)C)CC2)c1C` (centres unmarked) [Compound 500, 3-[4-[[2-(4-chlorophenyl)-4-isopropyl-cyclohexen-1-yl]methoxy]-2,3-dimethyl-phenyl]Propanoic Acid], the pEC50 was less than 5.30 at human GPR40 and 5.82 at Human GPR120 short form.
In the case of `O=C(O)CCc1ccc(OCC2=C(c3ccc(Br)cc3)CCC2)cc1Cl` [Compound 276, 3-[4-[[2-(4-bromophenyl)cyclopenten-1-yl]methoxy]-2-chloro-phenyl]Propanoic Acid], the results for the pEC50 at human GPR40 and at Human GPR120 short form were 6.71 and 6.37, respectively.
For `Cc1ccc(C2=C(COc3ccc(CCC(=O)O)c(C(F)(F)F)c3)CCC2)cc1F` [Compound 282, 3-[4-[[2-(3-fluoro-4-methyl-phenyl)cyclopenten-1-yl]methoxy]-2-(trifluoromethyl)phenyl]Propanoic Acid] the same measures were 6.61 and 6.72.
On to `Cc1cc(CCC(=O)O)cc(F)c1OCC1=C(c2ccc(F)cc2)CCC1` [Compound 227, 3-[3-fluoro-4-[[2-(4-fluorophenyl)cyclopenten-1-yl]methoxy]-5-methyl-phenyl]Propanoic Acid], for which the pEC50 on human GPR40 is less than 5.30; on Human GPR120 short form, 6.45.
In the same order, the values of `CCCC1=C(COc2ccc(CCC(=O)O)c(Cl)c2)CCCC1` [Compound 591, 3-[2-chloro-4-[(2-propylcyclohexen-1-yl)methoxy]phenyl]Propanoic Acid] are 6.37 and 5.62.
